For 38 compounds, melting point and IC50 results are on record in patent US20080221114A1, “2-(Cyclic Aminocarbonyl) Indoline Derivative and Medicinal Composition Containing the Same” (priority 2005, published 2008).

By melting point is commonly meant the temperature, or range, at which the solid turns liquid. Usually IC50 stands for the concentration that inhibits the measured activity by half. Higher therefore signals weaker potency.

Data set [1] addresses T1, mitochondrial benzodiazepine receptor (MBR) (Rattus norvegicus, UniProt P16257).
T1 construct: from tissue; host or cells: kidney of male Wistar rats (crude membrane preparation)
Kind of data set: Binding assay of mitochondrial benzodiazepine receptor (MBR), [3H]4'-chlorodiazepam (Ro5-4864), rat kidney membrane-preparation. To be noted: rat kidney membranes, [3H]4'-chlorodiazepam 0.5 nM, 0° C. for 150 minutes. How it is done: The binding assay of central-type benzodiazepine receptor (CBR) and the preparation of receptor membrane-preparation were carried out according to the partially modified method of Braestrup, C. et al. [see; Br. J. Psychiatry, 133, 249-260 (1978)] with a minor modification; the binding assay of mitochondrial benzodiazepine receptor (MBR) and the preparation of receptor membrane-preparation were carried out according to the method of Schoemaker, H [see; J. Pharmacol. Exp. Ther., 225, 61-69 (1983)] with a minor modification.
CBR and MBR membrane-preparations were prepared from forebrain (CBR) and kidney (MBR) of male Wistar strain rats according to the following procedure, respectively.
To the forebrain of rat, 20 volumes of ice-cold 0.32 M sucrose solution to wet-weight of the tissue (1:20, wet-weight/vol) was added and homogenized, and then the homogenate was centrifuged at 900×g for 10 minutes. The supernatant was centrifuged at 11,500×g for 20 minutes, a buffer I for the binding assay (50 mM Tris-hydrochloric acid buffer, pH 7.5) was added to the resultant precipitate, and the mixture was homogenized, and then it was centrifuged at 30,000×g for 10 minutes. The resulting precipitate was washed 3 times according to the same operation, suspended in the buffer I (1 g of wet-weight of tissue/10 ml) and used as a CBR membrane-preparation for the binding assay. The CBR membrane-preparation was stored at −80° C. until use, and on the day of the assay, it was thawed and suspended in the buffer for use. On the other hand, kidney of rat was homogenized in 20 volumes of ice-cold buffer II for the binding assay to wet-weight of the tissue (1:20, wet-weight/vol) (50 mM sodium phosphate-potassium phosphate buffer solution containing 100 mM sodium chloride, pH 7.4), and then filtrated through 4 layers of gauze, and the filtrate was centrifuged at 40,000×g for 20 minutes. The resulting precipitate was suspended in the buffer II (1 g of wet-weight of tissue/50 ml) and used as a MBR membrane-preparation for the binding assay.
As a labeled ligand and a non-labeled ligand, [^3H]flunitrazepam (final concentration: 1 nM) and diazepam (final concentration: 20 μM) were used respectively, for the CBR binding assay, and [^3H]4′-chlorodiazepam (Ro5-4864, chemical name: 7-chloro-1,3-dihydro-1-methyl-5-(4-chloro-phenyl)-2H-1,4-[…]) (final concentration: 0.5 nM) and diazepam (final concentration: 50 μM) were used respectively, for the MBR binding assay. The binding assay of CBR was carried out by incubating at 0° C. for 30 minutes, while that of MBR was at 0° C. for 150 minutes.
The receptor binding assay was carried out in the following procedure. The test compound which the concentration was known, a tritium labeled ligand, a receptor membrane-preparation and the buffer I or II for the binding assay were added to a 96-well microplate in the total volume was 0.2 ml, and when the receptor membrane-preparation was added, the reaction started. After the incubation, the labeled ligand binding to the receptor was filtrated through a filter plate (UNI FILTER-96GF/B, PerkinElmer, the U.S.) using a cell harvester (PerkinElmer, the U.S.) to stop the reaction. The filter was immediately washed 6 times with 0.3 ml of the ice-cold buffer [50 mM Tris-hydrochloric acid buffer (pH 7.7)]. After 30 μl of liquid scintillation cocktail (MICROSCINTI 20, PerkinElmer, the U.S.) was added to each well on the dried filter plate, the radioactivity was measured with a TopCount. The specific binding amount was obtained by subtracting the non-specific binding amount which was simultaneously measured in the presence of non-labeled ligand from the total binding amount. The concentration that the test compound could decrease the specific binding amount of the labeled ligand to 50% of the amount (IC50 value) was analyzed using nonlinear least-squares method.

`Cn1nc(N2c3ccccc3C[C@H]2C(=O)N2CCCCCCC2)ccc1=O` (hydrate or solvate) [Example 119, (S)-1-(1-methyl-6-oxo-1,6-dihydropyridazin-3-yl)-2-[(1-perhydroazocinyl)carbonyl]indoline]: the melting point is 179 to 182 °C. The same measure, in the same setting: with `C[C@H]1CCCN(C(=O)[C@@H]2Cc3ccccc3N2c2ccc(=O)n(CC(=O)c3ccccc3)n2)C1` (hydrate or solvate) [Example 124] the figure was 255 °C (dec.); with `C[C@H]1CCCN(C(=O)[C@@H]2Cc3ccccc3N2c2ccc(=O)n(CC3CCC3)n2)C1` (hydrate or solvate) [Example 125], 221 to 223 °C. For `O=C(C1Cc2ccccc2N1c1ncccn1)N1CCCC(F)(F)C1` (racemic) [Example 48], the melting point fell in the range of 172 to 174 °C. The compound further returned an IC50 in data set [1] of 77 nM. In the same order, the values of `O=C(C1Cc2ccccc2N1c1ncccn1)N1CCCC(C(F)(F)F)C1` (racemic) [Example 49] are 159 to 163 °C and 3.98 nM. For `O=C(C1Cc2ccccc2N1c1ncccn1)N1CCCC(CO)C1` (racemic) [Example 50], the melting point is 124 to 128 °C. In data set [1], this compound had an IC50 of 92.6 nM.

Compound `O=C(C1Cc2ccccc2N1c1ncccn1)N1CCCC(c2ccccc2)C1` (racemic) [Example 51] showed a melting point of 145 to 151 °C. The same compound showed an IC50 in data set [1] of 21.2 nM. In the same order, the values of `CC1CC(C)CN(C(=O)C2Cc3ccccc3N2c2ccncn2)C1` (racemic) [Example 58] are 107 to 109 °C and 4.31 nM.

With `CC1CCCN(C(=O)C2Cc3cc(F)ccc3N2c2cccnn2)C1` (racemic) [Example 84], the melting point fell in the range of 155 to 157 °C. This compound returned an IC50 in data set [1] of 5.58 nM. The matching figures for `COc1cccc2c1CC(C(=O)N1CCCC(C)C1)N2c1cccnn1` (racemic) [Example 85]: 160 to 162 °C and 3.69 nM. In turn, `CC1CCCN(C(=O)C2Cc3cc(F)ccc3N2c2ccc(=O)n(C)n2)C1` (racemic) [Example 132] registered a melting point of 217 to 219 °C. The compound further yielded an IC50 in data set [1] of 10.1 nM. The matching figures for `COc1cccc2c1CC(C(=O)N1CCCC(C)C1)N2c1ccc(=O)n(C)n1` (racemic) [Example 133]: 181 to 182 °C and 3.95 nM. In the same order, the values of `COc1ccc2c(c1)CC(C(=O)N1CCCC(C)C1)N2c1ccc(=O)n(C)n1` (racemic) [Example 134] are 248 to 250 °C and 33.8 nM. In turn, `COc1ccc2c(c1)N(c1ccc(=O)n(C)n1)C(C(=O)N1CCCC(C)C1)C2` (racemic) [Example 135] gave a melting point of 182 to 184 °C. For the same compound, the IC50 in data set [1] worked out at 13.5 nM. For `C[C@@H]1C[C@H](C)CN(C(=O)C2Cc3ccccc3N2c2nc3ccccc3o2)C1` (relative stereo) [Example 5], the melting point lay within 199 to 201 °C. The same compound showed a half-inhibitory concentration (IC50) in data set [1] of 2.28 nM. Compound `CCc1cnc(N2c3ccccc3CC2C(=O)N2C[C@H](C)C[C@H](C)C2)nc1` (relative stereo) [Example 8] displayed a melting point of 147 to 149 °C. This compound also returned an IC50 in data set [1] of 2.05 nM. In turn, `C[C@@H]1C[C@H](C)CN(C(=O)C2Cc3ccccc3N2c2ccc(F)cn2)C1` (relative stereo) [Example 10] gave a melting point of 139 to 141 °C. This compound also returned a half-maximal inhibitory concentration (IC50) in data set [1] of 1.14 nM. In the same order, the values of `Cc1ccc(N2c3ccccc3CC2C(=O)N2C[C@H](C)C[C@H](C)C2)nc1` (relative stereo) [Example 11] are 137 to 139 °C and 1.84 nM.

As to `CC1CCCN(C(=O)C2Cc3ccccc3N2c2ncccn2)C1` (stereo not drawn) [Example 6], the melting point was in the range of 156 to 158 °C. In data set [1], this compound showed a 50% inhibitory concentration (IC50) of 2.92 nM.

`O=C(C1Cc2ccccc2N1c1ncccn1)N1CCCCC1` (stereo not drawn) [Example 7] had a melting point of 149 to 151 °C. Also, the IC50 in data set [1] stood at 123 nM. For `C[C@H]1CCCN(C(=O)[C@@H]2Cc3ccccc3N2c2nccc3ccccc23)C1` [Example 12], the melting point is 134 to 136 °C. In data set [1], this compound showed an IC50 of 1.37 nM. In the same order, the values of `C[C@@H]1C[C@H](C)CN(C(=O)[C@@H]2Cc3ccccc3N2c2nccc3ccccc23)C1` [Example 13] are 173 to 175 °C and 2.08 nM. For `C[C@H]1CCCN(C(=O)[C@@H]2Cc3ccccc3N2c2nc3ccccc3s2)C1` [Example 14], the melting point was in the range of 165 to 166 °C. Moreover, in data set [1], the IC50 is 0.823 nM.

`C[C@@H]1C[C@H](C)CN(C(=O)[C@@H]2Cc3ccccc3N2c2nc3ccccc3s2)C1` [Example 15] showed a melting point of 170 to 173 °C. The compound also yielded an IC50 in data set [1] of 1.46 nM. In the same order, the values of `C[C@@H]1CCCN(C(=O)[C@@H]2Cc3ccccc3N2c2nc3ccccc3o2)C1` [Example 16] are 220 to 222 °C and 1.17 nM. The matching figures for `C[C@H]1CCCN(C(=O)[C@@H]2Cc3ccccc3N2c2nc3ccccc3o2)C1` [Example 17, (S)-1-(1,3-benzoxazol-2-yl)-2-[[(S)-3-methylpiperidin-1-yl]carbonyl]indoline]: 191 to 193 °C and 0.638 nM. In the same order, the values of `C[C@@H]1C[C@H](C)CN(C(=O)[C@@H]2Cc3ccccc3N2c2nc3ccccc3o2)C1` [Example 18] are 165 to 167 °C and 1.47 nM. Consider `C[C@@H]1C[C@H](C)CN(C(=O)[C@@H]2Cc3ccccc3N2c2cncc(Cl)n2)C1` [Example 21], for which the melting point was 174 to 175 °C. The compound further gave an IC50 in data set [1] of 1.23 nM. In the same order, the values of `C[C@@H]1CCCN(C(=O)[C@@H]2Cc3ccccc3N2c2ncccn2)C1` [Example 22] are 151 to 153 °C and 19.3 nM. The matching figures for `CC1CC(C)CN(C(=O)[C@@H]2Cc3ccccc3N2c2ncccn2)C1` (stereo partly drawn) [Example 25]: 237 to 239 °C and 6.73 nM. For `C[C@H]1CCCN(C(=O)[C@@H]2Cc3ccccc3N2c2cnc3ccccc3n2)C1` [Example 26], the melting point was 160 to 161 °C. Further, the IC50 in data set [1] is 0.851 nM. Regarding `C[C@@H]1C[C@H](C)CN(C(=O)[C@@H]2Cc3ccccc3N2c2cnc3ccccc3n2)C1` [Example 27], the melting point lay within 156 to 157 °C. The IC50 in data set [1] stood at 1.66 nM.

Regarding `C[C@H]1CCCN(C(=O)[C@@H]2Cc3ccccc3N2c2nsc3ccccc23)C1` [Example 28], the melting point was in the range of 176 to 178 °C. In addition, in data set [1], the IC50 is 5.72 nM. In the same order, the values of `C[C@@H]1C[C@H](C)CN(C(=O)[C@@H]2Cc3ccccc3N2c2ccc([N+](=O)[O-])cn2)C1` [Example 30] are 208 to 210 °C and 1.29 nM. As for `C[C@H]1CCCN(C(=O)[C@@H]2Cc3ccccc3N2c2cccnc2)C1` [Example 32], the melting point fell in the range of 114 to 115 °C. The concentration for half-maximal inhibition (IC50) in data set [1] was 0.727 nM.

For the compound `C[C@H]1CCCN(C(=O)[C@@H]2Cc3ccccc3N2c2ccc(Cl)nn2)C1` [Example 35], the melting point is 183 to 186 °C. The IC50 in data set [1] is 1.19 nM. The matching figures for `C[C@@H]1C[C@H](C)CN(C(=O)[C@@H]2Cc3ccccc3N2c2ccc(Cl)nn2)C1` [Example 36]: 182 to 184 °C and 1.28 nM.

The compound `CCCCn1nc(N2c3ccccc3C[C@H]2C(=O)N2CCC[C@H](C)C2)ccc1=O` [Example 74] had a melting point of 186 to 188 °C.
